# Data from patent US9642806B2, “Antifungal compositions with improved bioavailability” (Janssen Pharmaceutica N.V., priority 1996, dated 2017).
# How the values were obtained:
# [1] = Solubility in aqueous media (USP definition); format: physicochemical; conditions: water; USP definition: more than 10,000 parts of solvent for 1 part of solute
# Text: The solvent referred to herein is water.
# [2] = Thermal stability at melt-extrusion temperatures; format: physicochemical; conditions: temperatures up to 300° C.
# Protocol: One of the most important parameters of melt extrusion is the temperature at which the melt-extruder is operating. […] At temperatures lower than 120° C., itraconazole will not dissolve completely in most water-soluble polymers and the extrudate will not have the required bioavailability. In addition, the process is difficult because of the high viscosity of the mixture. At temperatures of more than 300° C. the water-soluble polymer may decompose to an unacceptable level.
structure (smiles),measurement,setting,value
"CCC(C)n1ncn(-c2ccc(N3CCN(c4ccc(OCC5COC(Cn6cncn6)(c6ccc(Cl)cc6Cl)O5)cc4)CC3)cc2)c1=O (racemic) [itraconazole, (±)-cis-4-[4-[4-[4-[[2-(2,4-dichlorophenyl)-2-(1H-1,2,4-triazol-1-yl-methyl)-1,3-dioxolan-4-yl]methoxy]phenyl]-1-piperazinyl]phenyl]-2,4-dihydro-2-(1-methylpropyl)-3H-1,2,4-triazol-3-one]",solubility in aqueous media,[1],practically insoluble
same,thermal stability (decomposition),[2],thermally very stable
